From the supplement of paper PMC11451515

System: SEM cells
Assay: cell viability relative to DMSO control; higher = less cytotoxic
Conditions: 48 h
How it was run: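 Library compounds in DMSO were pin-dosed in an 11-point threefold series (47 μM to 0.79 nM) onto leukemia cells in 1536-well plates (5 μl). Plates held 500 cells/well of NOMO1 or SEM or 1000 cells/well of P12-Ichikawa, each adapted for at least four passages in each medium. Luminescence was read with CellTiter-Glo One after 48 h at 37°C. Viability means the per-plate percentage relative to DMSO wells, using cell-free wells as background.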

[1] = HPLM + 10% dialyzed FBS, 0.000781 µM
[2] = HPLM + 10% dialyzed FBS, 0.00234 µM
[3] = HPLM + 10% dialyzed FBS, 0.00702 µM
[4] = HPLM + 10% dialyzed FBS, 0.0211 µM
[5] = HPLM + 10% dialyzed FBS, 0.0632 µM
[6] = HPLM + 10% dialyzed FBS, 0.19 µM
[7] = HPLM + 10% dialyzed FBS, 0.569 µM
[8] = HPLM + 10% dialyzed FBS, 1.71 µM
[9] = HPLM + 10% dialyzed FBS, 5.12 µM
[10] = HPLM + 10% dialyzed FBS, 15.4 µM
[11] = HPLM + 10% dialyzed FBS, 46.1 µM
[12] = RPMI 5 mM glucose + 10% FBS, 0.000781 µM
[13] = RPMI 5 mM glucose + 10% FBS, 0.00234 µM
[14] = RPMI 5 mM glucose + 10% FBS, 0.00702 µM
[15] = RPMI 5 mM glucose + 10% FBS, 0.0211 µM
[16] = RPMI 5 mM glucose + 10% FBS, 0.0632 µM
[17] = RPMI 5 mM glucose + 10% FBS, 0.19 µM
[18] = RPMI 5 mM glucose + 10% FBS, 0.569 µM
[19] = RPMI 5 mM glucose + 10% FBS, 1.71 µM
[20] = RPMI 5 mM glucose + 10% FBS, 5.12 µM
[21] = RPMI 5 mM glucose + 10% FBS, 15.4 µM
[22] = RPMI 5 mM glucose + 10% FBS, 46.1 µM
[23] = RPMI 5 mM glucose + 10% dialyzed FBS, 0.000781 µM
[24] = RPMI 5 mM glucose + 10% dialyzed FBS, 0.00234 µM
[25] = RPMI 5 mM glucose + 10% dialyzed FBS, 0.00702 µM
[26] = RPMI 5 mM glucose + 10% dialyzed FBS, 0.0211 µM
[27] = RPMI 5 mM glucose + 10% dialyzed FBS, 0.0632 µM
[28] = RPMI 5 mM glucose + 10% dialyzed FBS, 0.19 µM
[29] = RPMI 5 mM glucose + 10% dialyzed FBS, 0.569 µM
[30] = RPMI 5 mM glucose + 10% dialyzed FBS, 1.71 µM
[31] = RPMI 5 mM glucose + 10% dialyzed FBS, 5.12 µM
[32] = RPMI 5 mM glucose + 10% dialyzed FBS, 15.4 µM
[33] = RPMI 5 mM glucose + 10% dialyzed FBS, 46.1 µM

CCCNC(=O)Nc1ccc(Oc2ncnc3cc(OC)c(OC)cc23)cc1Cl
cell viability [1]: 101% | cell viability [2]: 93.5% | cell viability [3]: 108% | cell viability [4]: 104% | cell viability [5]: 102% | cell viability [6]: 101% | cell viability [7]: 89.8% | cell viability [8]: 98.1% | cell viability [9]: 81% | cell viability [10]: 80.4% | cell viability [11]: 47.6% | cell viability [12]: 118% | cell viability [13]: 125% | cell viability [14]: 125% | cell viability [15]: 146% | cell viability [16]: 117% | cell viability [17]: 104% | cell viability [18]: 103% | cell viability [19]: 98% | cell viability [20]: 88.2% | cell viability [21]: 92.1% | cell viability [22]: 57.7% | cell viability [23]: 94% | cell viability [24]: 109% | cell viability [25]: 104% | cell viability [26]: 113% | cell viability [27]: 90.7% | cell viability [28]: 98.5% | cell viability [29]: 92.8% | cell viability [30]: 78.9% | cell viability [31]: 73.3% | cell viability [32]: 75.5% | cell viability [33]: 41.7%

COc1ccc(C(=O)CC2(O)C(=O)Nc3c(Cl)ccc(Cl)c32)cc1 (stereo not drawn)
cell viability [1]: 87% | cell viability [2]: 108% | cell viability [3]: 111% | cell viability [4]: 110% | cell viability [5]: 104% | cell viability [6]: 109% | cell viability [7]: 113% | cell viability [8]: 107% | cell viability [9]: 45.9% | cell viability [10]: 20.5% | cell viability [11]: 16.2% | cell viability [12]: 75.7% | cell viability [13]: 98.4% | cell viability [14]: 99.7% | cell viability [15]: 79.3% | cell viability [16]: 94.1% | cell viability [17]: 85.1% | cell viability [18]: 81.2% | cell viability [19]: 65.7% | cell viability [20]: 41.4% | cell viability [21]: 10.7% | cell viability [22]: 9.15% | cell viability [23]: 94.8% | cell viability [24]: 101% | cell viability [25]: 107% | cell viability [26]: 88.9% | cell viability [27]: 104% | cell viability [28]: 107% | cell viability [29]: 107% | cell viability [30]: 90.3% | cell viability [31]: 47.3% | cell viability [32]: 20.4% | cell viability [33]: 14.9%

CN1CC(=O)N2[C@H](c3ccc4c(c3)OCO4)c3[nH]c4ccccc4c3C[C@@H]2C1=O
cell viability [1]: 98.8% | cell viability [2]: 88.6% | cell viability [3]: 97.2% | cell viability [4]: 96.3% | cell viability [5]: 98% | cell viability [6]: 102% | cell viability [7]: 108% | cell viability [8]: 106% | cell viability [9]: 93.9% | cell viability [10]: 100% | cell viability [11]: 85.9% | cell viability [12]: 92.6% | cell viability [13]: 85.3% | cell viability [14]: 85.8% | cell viability [15]: 97.9% | cell viability [16]: 102% | cell viability [17]: 108% | cell viability [18]: 92.6% | cell viability [19]: 88.8% | cell viability [20]: 82.1% | cell viability [21]: 85.3% | cell viability [22]: 83.5% | cell viability [23]: 94% | cell viability [24]: 88.8% | cell viability [25]: 88.3% | cell viability [26]: 108% | cell viability [27]: 106% | cell viability [28]: 69.6% | cell viability [29]: 105% | cell viability [30]: 113% | cell viability [31]: 105% | cell viability [32]: 89% | cell viability [33]: 95.4%

Cc1cccc(Nc2ccncc2[S+](=O)([O-])NC(=O)NC(C)C)c1
cell viability [1]: 80.2% | cell viability [2]: 82.6% | cell viability [3]: 88% | cell viability [4]: 92.4% | cell viability [5]: 85.7% | cell viability [6]: 95.1% | cell viability [7]: 98.6% | cell viability [8]: 85.6% | cell viability [9]: 75.5% | cell viability [10]: 84.4% | cell viability [11]: 72.3% | cell viability [12]: 103% | cell viability [13]: 94.6% | cell viability [14]: 83.8% | cell viability [15]: 102% | cell viability [16]: 96.2% | cell viability [17]: 97.9% | cell viability [18]: 111% | cell viability [19]: 87.7% | cell viability [20]: 90.4% | cell viability [21]: 95.3% | cell viability [22]: 88.5% | cell viability [23]: 89.7% | cell viability [24]: 104% | cell viability [25]: 110% | cell viability [26]: 94.4% | cell viability [27]: 106% | cell viability [28]: 111% | cell viability [29]: 101% | cell viability [30]: 95.7% | cell viability [31]: 83.8% | cell viability [32]: 101% | cell viability [33]: 84.5%

COc1cccc2c1C(=O)c1c(O)c3c(c(O)c1C2=O)C[C@@](O)(C(=O)CO)C[C@@H]3O[C@H]1C[C@H](N)[C@H](O)[C@H](C)O1
cell viability [1]: 96.4% | cell viability [2]: 103% | cell viability [3]: 117% | cell viability [4]: 124% | cell viability [5]: 105% | cell viability [6]: 92.4% | cell viability [7]: 47.5% | cell viability [8]: 12.9% | cell viability [9]: 6.97% | cell viability [10]: 4.92% | cell viability [11]: 3.63% | cell viability [23]: 106% | cell viability [24]: 100% | cell viability [25]: 108% | cell viability [26]: 92% | cell viability [27]: 101% | cell viability [28]: 69.9% | cell viability [29]: 40.1% | cell viability [30]: 9.78% | cell viability [31]: 5.67% | cell viability [32]: 3.74% | cell viability [33]: 2.82%

C[C@@H]1CCO[C@H]2CN\3/C=C(/C(=O)NCC4=C(F)C=C(F)C=C4)C(=O)\C(=C3C(=O)N12)O
cell viability [1]: 82.2% | cell viability [2]: 104% | cell viability [3]: 85% | cell viability [4]: 104% | cell viability [5]: 73.4% | cell viability [6]: 91.6% | cell viability [7]: 105% | cell viability [8]: 103% | cell viability [9]: 104% | cell viability [10]: 91.5% | cell viability [11]: 85.3% | cell viability [12]: 100% | cell viability [13]: 95.2% | cell viability [14]: 99.6% | cell viability [15]: 98.5% | cell viability [16]: 44.4% | cell viability [17]: 111% | cell viability [18]: 104% | cell viability [19]: 112% | cell viability [20]: 107% | cell viability [21]: 85.8% | cell viability [22]: 88.1% | cell viability [23]: 93.4% | cell viability [24]: 98.7% | cell viability [25]: 95.2% | cell viability [26]: 96.3% | cell viability [27]: 99.1% | cell viability [28]: 100% | cell viability [29]: 107% | cell viability [30]: 99.3% | cell viability [31]: 94.6% | cell viability [32]: 96.7% | cell viability [33]: 86.6%

C=C[C@H]1CN2CCC1C[C@@H]2C(O)c1ccnc2ccc(OC)cc12 (stereo partly drawn)
cell viability [1]: 118% | cell viability [2]: 146% | cell viability [3]: 116% | cell viability [4]: 22.4% | cell viability [5]: 131% | cell viability [6]: 115% | cell viability [7]: 121% | cell viability [8]: 111% | cell viability [9]: 126% | cell viability [10]: 113% | cell viability [11]: 111% | cell viability [12]: 67.5% | cell viability [13]: 77.6% | cell viability [14]: 104% | cell viability [15]: 11.3% | cell viability [16]: 99.7% | cell viability [17]: 96.1% | cell viability [18]: 82% | cell viability [19]: 77% | cell viability [20]: 94.6% | cell viability [21]: 84.6% | cell viability [22]: 63% | cell viability [23]: 121% | cell viability [24]: 123% | cell viability [25]: 138% | cell viability [26]: 23.6% | cell viability [27]: 129% | cell viability [28]: 121% | cell viability [29]: 112% | cell viability [30]: 127% | cell viability [31]: 131% | cell viability [32]: 132% | cell viability [33]: 97.5%

CCOC(=O)C(C)OC1=CC=CC2=C1\C=C/N(CC(=O)NC3=CC=C4OCCOC4=C3)C2=O (stereo not drawn)
cell viability [1]: 77.7% | cell viability [2]: 85.4% | cell viability [3]: 92.1% | cell viability [4]: 93% | cell viability [5]: 102% | cell viability [6]: 92.3% | cell viability [7]: 92.4% | cell viability [8]: 97.4% | cell viability [9]: 103% | cell viability [10]: 100% | cell viability [11]: 102% | cell viability [12]: 80.1% | cell viability [13]: 87.8% | cell viability [14]: 88% | cell viability [15]: 88% | cell viability [16]: 93.2% | cell viability [17]: 90.2% | cell viability [18]: 93.5% | cell viability [19]: 95% | cell viability [20]: 109% | cell viability [21]: 98.1% | cell viability [22]: 92.6% | cell viability [23]: 90.1% | cell viability [24]: 94.9% | cell viability [25]: 102% | cell viability [26]: 89% | cell viability [27]: 85.4% | cell viability [28]: 98% | cell viability [29]: 99.2% | cell viability [30]: 104% | cell viability [31]: 99.1% | cell viability [32]: 88.2% | cell viability [33]: 112%
